Source: paper PMC6538996, “Evaluating the In Vivo Specificity of [^18F]UCB-H for the SV2A Protein, Compared with SV2B and SV2C in Rats Using microPET” (Molecules, 2019)

Key:
SV2A = conditions: cited from earlier work
[1] = target: T1, [^18F]UCB-H binding in rat brain (Rattus norvegicus, UniProt Q02563); test: microPET blocking assay of [18F]UCB-H (Vt, Logan plot, PBIF) after pre-treatment with competitors; format: in vivo, Sprague Dawley rats; conditions: mean ± SEM, n = 5, SV2AL 10 mg/kg, SV2BL and SV2CL 3 mg/kg i.p.
T1 construct: from tissue; host or cells: brain of living Sprague Dawley rats (microPET)
Experimental: The competitors were prepared daily in a vehicle composed of distilled water containing 1% methyl cellulose (viscosity: 15 cP, Sigma-Aldrich, Overijse, Belgium) and 5% dimethyl sulphoxide (DMSO, Sigma-Aldrich, Belgium). The concentrations differed depending on the product specifications and their respective pharmacokinetics, provided by UCB Pharma s.a. The dosing used was 10 mg/kg for SV2AL, 3 mg/kg for SV2BL, and 3 mg/kg for SV2CL. All solutions were administered through the intraperitoneal (i.p.) route in a total volume of 1 mL per kg of body weight. The animals used as a control group (vehicle) received an equal volume of vehicle through the same route of administration.
The animals (n = 5 per group) were anesthetized using 4% isoflurane in air at a flow rate of 1 L/min during induction and 1.5% to 2% isoflurane in air at 0.6 L/min during maintenance. Respiration rate and rectal temperature were continuously measured using a physiological monitoring system (Minerve, France). The temperature was maintained at 37 ± 0.5 °C using an air warming system. […]
PMOD software (Version 3.6, PMOD Technologies, Zurich, Switzerland) was used to process the imaging data. […] Finally, the inverse normalization parameters were calculated and applied to the PMOD rat brain atlas to bring it in the individual PET space. […]

human SV2A = target: T2, human SV2A (Homo sapiens, UniProt Q7L0J3); test: In vitro radioligand binding assay, hSV2A (HEK293 membranes, 3H-UCB30889); conditions: 37 °C, mean n = 3 to 10, read-out: pIC50 SV2A (converted)
T2 construct: expressed in transfected cells; crude membranes
Experimental: Reagents and reference compounds used were of analytical grade and obtained from various commercial sources. All cell culture reagents were obtained from Invitrogen (Merelbeke, Belgium). […] Test and reference compounds were dissolved in 100% DMSO or H2O to give 1 or 10 mM stock solution. The final DMSO concentration in assays was 0.1% unless otherwise stated. Cell lines generated at UCB Biopharma were human embryonic kidney (HEK) 293 cells expressing human SV2A, SV2B or SV2C proteins. Cells were cultured in Dulbecco’s Modified Eagle medium. The culture medium was supplemented with foetal bovine serum (FBS, 10%), 2 mM L-glutamine, 50 to 100 U/mL penicillin, 50 to 100 µg/mL streptomycin, and 200 µg/mL hygromycin B. Cells were grown at 37 °C with 95% air. Confluent cells were detached by 10 min incubation at 37 °C in phosphate buffered saline (PBS) containing 0.02% EDTA. Culture flasks were washed with 15 mL of ice-cold PBS. The cell suspension was centrifuged at 1500× g for 10 min at 4 °C. The pellet was homogenized in 15 mM Tris-HCl buffer (pH 7.5) containing 2 mM MgCl2, 0.3 mM EDTA, and 1 mM EGTA (buffer A) using a glass/teflon homogenizer. The crude homogenate was subjected to a freeze and thaw cycle in liquid nitrogen and DNAse (1 µL/mL) was then added. […] The radioactivity trapped on the filters was counted by liquid scintillation in a β-counter. […]

T1 sequence (Q02563 whole entry): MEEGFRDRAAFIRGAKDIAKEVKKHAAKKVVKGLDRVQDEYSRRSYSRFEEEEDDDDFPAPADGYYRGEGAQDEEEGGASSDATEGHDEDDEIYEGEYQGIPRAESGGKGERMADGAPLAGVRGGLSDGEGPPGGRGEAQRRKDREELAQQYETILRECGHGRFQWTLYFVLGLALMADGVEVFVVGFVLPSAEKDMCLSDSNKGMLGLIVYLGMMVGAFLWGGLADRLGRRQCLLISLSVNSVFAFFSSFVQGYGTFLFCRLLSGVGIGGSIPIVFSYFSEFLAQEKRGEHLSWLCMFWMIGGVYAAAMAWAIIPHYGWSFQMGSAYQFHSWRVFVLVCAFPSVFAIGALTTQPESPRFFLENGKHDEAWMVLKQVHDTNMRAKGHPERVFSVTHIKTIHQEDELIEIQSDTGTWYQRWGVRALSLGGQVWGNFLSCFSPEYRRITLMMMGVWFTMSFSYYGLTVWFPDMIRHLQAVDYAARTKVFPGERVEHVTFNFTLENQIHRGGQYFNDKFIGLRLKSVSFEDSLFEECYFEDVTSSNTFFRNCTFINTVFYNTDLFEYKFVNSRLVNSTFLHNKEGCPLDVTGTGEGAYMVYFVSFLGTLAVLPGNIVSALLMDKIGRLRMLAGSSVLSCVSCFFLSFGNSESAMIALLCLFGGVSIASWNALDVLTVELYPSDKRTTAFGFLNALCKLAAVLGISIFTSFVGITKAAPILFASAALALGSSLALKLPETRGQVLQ
T2 sequence (Q7L0J3 whole entry): as the sequence (Q02563 whole entry) above, with E53D, A62S, A71T, D144E, T154A, S440G, A482S, V572I, L634M counted along it

Structure (SMILES) | pIC50 (affinity measured in vitro) (SV2A) | mean Vt of [18F]UCB-H in the whole brain of the pre-treated group [1] | IC50 (human SV2A)
[11CH3]n1cncc1CN1C[C@@H](c2cc(F)cc(F)c2)CC1=O [[^11C]UCB-A] | 7.9 | – | –
CC[C@@H](C(N)=O)N1CCCC1=O [SV2AL, levetiracetam] | – | 6.0 ± 0.3 | 6.31 µM
